The nature of this data set: Acute toxicity test (intravenous LD50). The conditions noted are these: mouse, in vivo, mice (ICR strain, male, 18-24 g). The text has this: The LD50 values of the representative compounds of this invention when administered intravenously to mice (ICR strain, male, 18-24 g) are shown in Table 2.

The term LD50 denotes the dose at which mortality reaches 50%.

Turning to `O=C(O)c1cn(-c2ccc(F)cc2)c(C=Cc2cccnc2)cc1=O` [drawing 215], the LD50 is above 200 mg/kg.
The same measure for `CN(C)c1ccc(-c2cc(=O)c(C(=O)O)cn2-c2ccc(O)cc2)cc1` [drawing 217]: above 200 mg/kg.
As to `O=C(O)c1cn(-c2ccc(F)cc2)c(-c2ccc(NCCO)cc2)cc1=O` [drawing 219], the median lethal dose (LD50) was above 200 mg/kg.
The same measure for `Cc1cc(O)ccc1-n1cc(C(=O)O)c(=O)cc1C1CCCCC1` [drawing 221]: above 200 mg/kg.

These data come from patent publication US4698352A, “4-oxo-1,4-dihydronicotinic acid derivatives, salts thereof, and antibacterial agents containing the same” (Toyama Chemical Co., Ltd., priority 1982, dated 1987).
